Molecular target: T1, human kinase Mps-1 (Homo sapiens, UniProt P33981)
T1 construct: N-terminally GST-tagged human full length recombinant Mps-1 kinase; GST (N); purchased Invitrogen, Karslruhe, Germany PV4071
T1 sequence (P33981 1-857): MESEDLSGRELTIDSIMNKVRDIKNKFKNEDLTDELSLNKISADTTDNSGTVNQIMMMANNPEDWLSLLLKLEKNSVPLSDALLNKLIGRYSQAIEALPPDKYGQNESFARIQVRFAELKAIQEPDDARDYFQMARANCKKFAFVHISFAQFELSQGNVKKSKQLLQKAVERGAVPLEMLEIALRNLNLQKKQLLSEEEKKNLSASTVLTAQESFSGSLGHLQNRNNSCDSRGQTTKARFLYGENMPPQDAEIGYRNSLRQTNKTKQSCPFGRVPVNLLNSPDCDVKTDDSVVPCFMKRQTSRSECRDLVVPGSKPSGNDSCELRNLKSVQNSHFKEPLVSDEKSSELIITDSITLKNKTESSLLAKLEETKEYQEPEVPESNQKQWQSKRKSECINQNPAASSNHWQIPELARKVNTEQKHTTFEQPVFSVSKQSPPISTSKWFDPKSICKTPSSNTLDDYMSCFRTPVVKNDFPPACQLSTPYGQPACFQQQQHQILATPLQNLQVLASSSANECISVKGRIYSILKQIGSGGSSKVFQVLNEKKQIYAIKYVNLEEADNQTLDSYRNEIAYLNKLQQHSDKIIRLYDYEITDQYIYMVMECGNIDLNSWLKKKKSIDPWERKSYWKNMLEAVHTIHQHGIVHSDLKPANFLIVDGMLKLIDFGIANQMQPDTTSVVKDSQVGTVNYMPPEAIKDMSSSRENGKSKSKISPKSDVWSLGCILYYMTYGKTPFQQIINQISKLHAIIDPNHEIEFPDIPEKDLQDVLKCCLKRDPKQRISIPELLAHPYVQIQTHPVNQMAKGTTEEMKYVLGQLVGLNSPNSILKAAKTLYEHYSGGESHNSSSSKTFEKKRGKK
Assay: Mps-1 kinase assay (TR-FRET)
Assay type: biochemical
Conditions: Mps-1 TR-FRET kinase assay; avg; read-out: Mps1 avg (IC50 [mol/l])
Description: The human kinase Mps-1 phosphorylates a biotinylated substrate peptide. Detection of the phosphorylated product is achieved by time-resolved fluorescence resonance energy transfer (TR-FRET) from Europium-labelled anti-phospho-Serine/Threonine antibody as donor to streptavidin labelled with cross-linked allophycocyanin (SA-XLent) as acceptor. Compounds are tested for their inhibition of the kinase activity.
N-terminally GST-tagged human full length recombinant Mps-1 kinase (purchased from Invitrogen, Karslruhe, Germany, cat. no PV4071) was used. As substrate for the kinase reaction a biotinylated peptide of the amino-acid sequence biotin-Ahx-PWDPDDADITEILG (C-terminus in amide form, purchased from Biosyntan GmbH, Berlin) was used.
For the assay 50 nl of a 100-fold concentrated solution of the test compound in DMSO was pipetted into a black low volume 384we11 microtiter plate (Greiner Bio-One, Frickenhausen, Germany), 2 μl of a solution of Mps-1 in assay buffer [0.1 mM sodium-ortho-vanadate, 10 mM MgCl2,2 mM DTT, 25 mM Hepes pH 7.7, 0.05% BSA (w/v), 0.001% Pluronic F-127] were added and the mixture was incubated for 15 min at 22° C. to allow pre-binding of the test compounds to Mps-1 before the start of the kinase reaction. Then the kinase reaction was started by the addition of 3 μl of a solution of 16.7 μM adenosine-tri-phosphate (ATP, 16.7 μM=>final conc. in the 5 μl assay volume is 10 μM) and peptide substrate (1.67 μM=>final conc. in the 5 μl assay volume is 1 μM) in assay buffer and the resulting mixture was incubated for a reaction time of 60 min at 22° C. The concentration of Mps-1 in the assay was adjusted to the activity of the enzyme lot and was chosen appropriate to have the assay in the linear range, typical enzyme concentrations were in the range of about 0.5 nM (final conc. in the 5 μl assay volume). The reaction was stopped by the addition of 5 μl of a solution of TR-FRET detection reagents (100 mM Hepes pH 7.4, 0.1% BSA, 40 mM EDTA, 140 nM Streptavidin-XLent [#61GSTXLB, Fa. Cis Biointernational, Marcoule, France], 1.5 nM anti-phospho(Ser/Thr)-Europium-antibody [#AD0180, PerkinElmer LAS, Rodgau-Jugesheinn, Germany]. Instead of the 1.5 nM anti-phospho(Ser/Thr)-Europium-antibody a mixture of 2 nM unlabeled anti-phospho ser/thr-pro antibody MPM-2 [Millipore cat. #05-368] and 1 nM LANCE EU-W1024 labeled anti-mouse IgG antibody [Perkin-Elmer, product no. AD0077] can be used).
The resulting mixture was incubated 1 h at 22° C. to allow the binding of the phosphorylated peptide to the anti-phospho(Ser/Thr)-Europium-antibody. Subsequently the amount of phosphorylated substrate was evaluated by measurement of the resonance energy transfer from the Europium-labelled anti-phospho(Ser/Thr) antibody to the Streptavidin-XLent. Therefore, the fluorescence emissions at 620 nm and 665 nm after excitation at 350 nm was measured in a Viewlux TR-FRET reader (PerkinElmer LAS, Rodgau-Jugesheinn, Germany). The “blank-corrected normalized ratio” (a Viewlux specific readout, similar to the traditional ratio of the emissions at 665 nm and at 622 nm, in which blank and Eu-donor crosstalk are subtracted from the 665 nm signal before the ratio is calculated) was taken as the measure for the amount of phosphorylated substrate. The data were normalised (enzyme reaction without inhibitor=0% inhibition, all other assay components but no enzyme=100% inhibition).

IC50 [µM] | Compound
12 | Cc1nsc(Nc2cnc3ccccc3n2)c1C(=O)Nc1cccc(C(=O)N2CCCC2)c1 [Example 113, 3-Methyl-N-[3-(pyrrolidin-1-ylcarbonyl)phenyl]-5-(quinoxalin-2-ylamino)-1,2-thiazole-4-carboxamide]
≥ 20 | Cc1nsc(Nc2ccc(C#N)cn2)c1C(=O)Nc1ccc(C(=O)OC(C)(C)C)cc1 [Example 98, tert-Butyl 4-[({5-[(5-cyanopyridin-2-yl)amino]-3-methyl-1,2-thiazol-4-yl}carbonyl)-amino]benzoate]
≥ 20 | Cc1nsc(Nc2cncc(C(F)(F)F)n2)c1C(=O)Nc1ccc(OCC2CCN(C(=O)OC(C)(C)C)C2)nc1 (stereo not drawn) [Example 110, tert-Butyl 3-{[(5-{[(3-methyl-5-{[6-(trifluoromethyl)pyrazin-2-yl]amino}-1,2-thiazol-4-yl)carbonyl]amino}pyridin-2-yl)oxy]methyl}pyrrolidine-1-carboxylate]
≥ 20 | Cc1nsc(Nc2cnc3ccccc3n2)c1C(=O)Nc1cccc(C(=O)N2CCN(C)CC2)c1 [Example 102, 3-Methyl-N-{3-[(4-methylpiperazin-1-yl)carbonyl]phenyl}-5-(quinoxalin-2-ylamino)-1,2-thiazole-4-carboxamide]
≥ 20 | Cc1nsc(Nc2cnc(C(F)(F)F)cn2)c1C(=O)Nc1ccc(OC2CCN(CCC(F)(F)F)CC2)nc1 [Example 10, 3-Methyl-5-{[5-(trifluoromethyl)pyrazin-2-yl]amino}-N-(6-{[1-(3,3,3-trifluoropropyl)-piperidin-4-yl]oxy}pyridin-3-yl)-1,2-thiazole-4-carboxamide]
> 20 | Cc1nsc(Nc2cnc(C(F)(F)F)cn2)c1C(=O)Nc1ccc(OC2CCN(CC(F)(F)F)CC2)c(F)c1 [Example 163, N-(3-fluoro-4-{[1-(2,2,2-trifluoroethyl)piperidin-4-yl]oxy}phenyl)-3-methyl-5-{[5-(trifluoromethyl)pyrazin-2-yl]amino}-1,2-thiazole-4-carboxamide]
> 20 | Cc1nsc(Nc2cnc3ccccc3n2)c1C(=O)Nc1ccc(C(=O)N2CCN(CC(F)F)CC2)cc1 [Example 157, N-(4-{[4-(2,2-difluoroethyl)piperazin-1-yl]carbonyl}phenyl)-3-methyl-5-(quinoxalin-2-ylamino)-1,2-thiazole-4-carboxamide]
> 20 | Cc1nsc(Nc2cnc(C(F)(F)F)cn2)c1C(=O)Nc1ccc(C(=O)NCCN2CCCC(F)(F)C2)cc1 [Example 153, N-(4-{[2-(3,3-difluoropiperidin-1-yl)ethyl]carbamoyl}phenyl)-3-methyl-5-{[5-(trifluoromethyl)pyrazin-2-yl]amino}-1,2-thiazole-4-carboxamide]
≥ 20 | Cc1nsc(Nc2cnc3ccccc3n2)c1C(=O)Nc1ccc(Oc2cccc(C(F)(F)F)c2)nc1 [Example 117, 3-Methyl-5-(quinoxalin-2-ylamino)-N-{6-[3-(trifluoromethyl)phenoxy]pyridin-3-yl}-1,2-thiazole-4-carboxamide]
≥ 20 | Cc1nsc(Nc2cnc(C(F)(F)F)cn2)c1C(=O)Nc1ccc(OCC2CCN(C(=O)OC(C)(C)C)C2)nc1 (stereo not drawn) [Example 109, tert-Butyl 3-{[(5-{[(3-methyl-5-{[5-(trifluoromethyl)pyrazin-2-yl]amino}-1,2-thiazol-4-yl)carbonyl]amino}pyridin-2-yl)oxy]methyl}pyrrolidine-1-carboxylate]
> 20 | Cc1nsc(Nc2ccc(C#N)cn2)c1C(=O)Nc1ccc(NC2CCCN(C(=O)OC(C)(C)C)C2)nc1 (stereo not drawn) [Example 171, tert-butyt 3-({5-[({5-[(5-cyanopyridin-2-yl)amino]-3-methyl-1,2-thiazol-4-yl}carbonyl)amino]pyridin-2-yl}amino)piperidine-1-carboxylate]
> 20 | Cc1nsc(Nc2cnc3ccccc3n2)c1C(=O)Nc1ccc(C(=O)N2CCCN(CC(F)(F)F)CC2)cc1 [Example 159]
12 | COC(=O)CNC(=O)c1cccc(NC(=O)c2c(C)nsc2Nc2cnc3ccccc3n2)c1 [Example 100, Methyl N-[3-({[3-methyl-5-(quinoxalin-2-ylamino)-1,2-thiazol-4-yl]carbonyl}amino)-benzoyl]glycinate]
≥ 20 | Cc1nsc(Nc2ccc(C#N)cn2)c1C(=O)Nc1ccc(Oc2cccc(C(F)(F)F)c2)nc1 [Example 118, 5-[(5-Cyanopyridin-2-yl)amino]-3-methyl-N-{6-[3-(trifluoromethyl)phenoxy]pyridin-3-yl}-1,2-thiazole-4-carboxamide]
≥ 20 | Cc1nsc(Nc2cnc(C(F)(F)F)cn2)c1C(=O)Nc1ccc(OCC2CCN(CCF)C2)nc1 (stereo not drawn) [Example 121, N-(6-{[1-(2-fluoroethyl)pyrrolidin-3-yl]methoxy}pyridin-3-yl)-3-methyl-5-{[5-(trifluoromethyl)pyrazin-2-yl]amino}-1,2-thiazole-4-carboxamide]
> 20 | Cc1nsc(Nc2cnc3ccccc3n2)c1C(=O)Nc1ccc(NC2CC2)nc1 [Example 172, N-[6-(cyclopropylamino)pyridin-3-yl]-3-methyl-5-(quinoxalin-2-ylamino)-1,2-thiazole-4-carboxamide]
> 20 | Cc1nsc(Nc2ccc(C#N)cn2)c1C(=O)Nc1cccc(S(C)(=O)=O)c1 [Example 150, 5-[(5-cyanopyridin-2-yl)amino]-3-methyl-N-[3-(methylsulfonyl)phenyl]-1,2-thiazole-4-carboxamide]
9 | Cc1nsc(Nc2cnc3ccccc3n2)c1C(=O)Nc1cccc(C(=O)NCC(=O)O)c1 [Example 99, N-[3-({[3-Methyl-5-(quinoxalin-2-ylamino)-1,2-thiazol-4-yl]carbonyl}amino)benzoy]-glycine]
> 20 | Cc1nsc(Nc2cnc3ccccc3n2)c1C(=O)Nc1ccc(C(=O)NCCN2CCCC(F)(F)C2)cc1 [Example 156, N-(4-{[2-(3,3-difluoropiperidin-1-yl)ethyl]carbamoyl}phenyl)-3-methyl-5-(quinoxalin-2-ylamino)-1,2-thiazole-4-carboxamide]
> 20 | Cc1nsc(Nc2ccc(C#N)cn2)c1C(=O)Nc1ccc(N[C@@H](C)C(=O)OC(C)(C)C)nc1 [Example 170, tert-butyl N-{5-[({5-[(5-cyanopyridin-2-yl)amino]-3-methyl-1,2-thiazol-4-yl}carbonyl)amino]pyridin-2-yl}alaninate]
18 | Cc1nsc(Nc2cnc3ccccc3n2)c1C(=O)Nc1cccc(C(=O)N2CCNCC2)c1 [Example 101, 3-Methyl-N-[3-(piperazin-1-ylcarbonyl)phenyl]-5-(quinoxalin-2-ylamino)-1,2-thiazole-4-carboxamide]

From US20170334899A1, “AMINO-SUBSTITUTED ISOTHIAZOLES” (Bayer Pharma Aktiengesellschaft, priority 2014, published 2017)
